Laboratory results: PubChem BioAssay AID1117354 (Cheminformatics & Chemogenomics Research Group (CCRG), …, 2015)
The source made the active and inactive calls. The rule behind the calls is not given here.

These compounds were tested against Tyrosine-protein kinase JAK2 (Homo sapiens) (UniProt O60674) (assay: NCGC Pharmaceutical Collection primary HTS, Janus kinase 2 (Homo sapiens) inhibitors, biochemical, LANCE Ultra TR-FRET (AID 1117354)). Conditions: LANCE Ultra TR-FRET kinase assay, at 20 µM (top of the series).
Chain of Tyrosine-protein kinase JAK2 (Homo sapiens) (O60674 whole entry, looked up): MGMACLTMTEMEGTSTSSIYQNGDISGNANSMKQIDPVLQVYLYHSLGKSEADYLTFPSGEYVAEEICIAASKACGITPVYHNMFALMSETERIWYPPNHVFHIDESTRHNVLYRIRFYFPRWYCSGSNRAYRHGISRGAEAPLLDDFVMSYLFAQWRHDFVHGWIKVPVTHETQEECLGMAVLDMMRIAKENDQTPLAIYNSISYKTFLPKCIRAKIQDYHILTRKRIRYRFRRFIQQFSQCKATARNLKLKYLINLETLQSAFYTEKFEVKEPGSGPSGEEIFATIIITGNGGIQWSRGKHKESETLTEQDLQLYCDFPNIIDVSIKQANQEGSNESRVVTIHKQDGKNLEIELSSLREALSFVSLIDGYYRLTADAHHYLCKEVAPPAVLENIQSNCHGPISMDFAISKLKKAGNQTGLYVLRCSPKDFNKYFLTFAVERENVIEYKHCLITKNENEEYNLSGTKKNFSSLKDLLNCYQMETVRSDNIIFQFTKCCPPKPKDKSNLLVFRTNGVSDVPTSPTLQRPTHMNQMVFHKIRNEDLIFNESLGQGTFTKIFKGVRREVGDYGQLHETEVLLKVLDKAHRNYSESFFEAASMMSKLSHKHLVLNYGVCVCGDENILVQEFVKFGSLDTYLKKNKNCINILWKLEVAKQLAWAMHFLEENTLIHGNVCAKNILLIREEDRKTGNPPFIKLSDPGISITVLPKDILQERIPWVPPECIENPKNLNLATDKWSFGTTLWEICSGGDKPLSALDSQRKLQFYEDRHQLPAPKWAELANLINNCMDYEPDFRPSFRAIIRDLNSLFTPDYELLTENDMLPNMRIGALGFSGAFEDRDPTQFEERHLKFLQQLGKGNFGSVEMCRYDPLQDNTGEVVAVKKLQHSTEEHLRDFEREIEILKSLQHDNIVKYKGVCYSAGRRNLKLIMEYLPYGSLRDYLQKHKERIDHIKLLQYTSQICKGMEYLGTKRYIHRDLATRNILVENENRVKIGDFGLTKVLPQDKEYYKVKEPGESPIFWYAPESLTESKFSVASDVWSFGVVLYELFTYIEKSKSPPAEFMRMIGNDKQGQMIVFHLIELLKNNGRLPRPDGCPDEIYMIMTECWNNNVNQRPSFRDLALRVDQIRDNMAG
With `COc1cc(NCc2ccc3nc(N)nc(N)c3c2C)cc(OC)c1OC` the inhibition was 26.2% (inactive).
With `CCCCC1C(=O)N(c2ccccc2)N(c2ccc(O)cc2)C1=O` (stereo not drawn) the inhibition was -4.57% (inactive).
For `CC[C@]1(O)C[C@@H]2CN(CCc3c([nH]c4ccccc34)[C@@](C(=O)OC)(c3cc4c(cc3OC)N(C)[C@H]3[C@@](O)(C(=O)OC)[C@H](OC(C)=O)[C@]5(CC)C=CCN6CC[C@]43[C@@H]65)C2)C1`, the inhibition was 5.49% (inactive).
With `CC[C@@H]([C@H](C)O)n1ncn(-c2ccc(N3CCN(c4ccc(OC[C@@H]5CO[C@@](Cn6cncn6)(c6ccc(F)cc6F)C5)cc4)CC3)cc2)c1=O` the inhibition was 10.5% (inactive).
For `Nc1nc(=S)c2[nH]cnc2[nH]1`, the inhibition was 10.3% (inactive).
`Nc1ccc2cc3ccc(N)cc3nc2c1` was tested, and the inhibition was -6.54% (inactive).
For `Oc1c(I)cc(I)c2cccnc12`, the inhibition was -10.5% (inactive).
In the case of `O=C(CCCCCCC(=O)Nc1ccccc1)NO`, the inhibition is reported as -17.1% (inactive).
In the case of `CNC(=O)c1cc(Oc2ccc(NC(=O)Nc3ccc(Cl)c(C(F)(F)F)c3)cc2)ccn1`, the inhibition is reported as 63.2%.
With `COC(=O)Nc1nc2ccc(Sc3ccccc3)cc2[nH]1` the inhibition was -7.45% (inactive).
With `CSc1ccc2c(c1)C(N1CCN(C)CC1)Cc1ccccc1S2` (stereo not drawn) the inhibition was -4.22% (inactive).
For `COc1cc([C@@H]2c3cc4c(cc3[C@H](O)[C@H]3COC(=O)[C@H]23)OCO4)cc(OC)c1OC`, the inhibition was 7.37% (inactive).
`CC(C)C[C@H](NC(=O)[C@H](Cc1ccccc1)NC(=O)c1cnccn1)B(O)O` was tested, and the inhibition was -3.33% (inactive).
With `CCN(CC)CCOc1ccc(/C(=C(\Cl)c2ccccc2)c2ccccc2)cc1` the inhibition was -4.05% (inactive).
For `CCCCc1oc2ccccc2c1C(=O)c1cc(I)c(OCCN(CC)CC)c(I)c1`, the inhibition was 16.2% (inactive).
In the case of `CC(=O)Oc1ccc(C2(c3ccc(OC(C)=O)cc3)Oc3ccccc3NC2=O)cc1`, the inhibition is reported as 7% (inactive).
In the case of `C=CC(=O)Nc1cc2c(Nc3ccc(F)c(Cl)c3)ncnc2cc1OCCCN1CCOCC1`, the inhibition is reported as 68.2%.
For `[O-][n+]1ccccc1SSc1cccc[n+]1[O-]`, the inhibition was -17.3% (inactive).
In the case of `COC(=O)c1nc(Cl)c(Cl)nc1N`, the inhibition is reported as -6.75% (inactive).
`C[C@@]12C(=O)OC(=O)[C@]1(C)C1CCC2O1` was tested, and the inhibition was -0.89% (inactive).
In the case of `CCCOc1ccc2nc(NC(=O)OC)[nH]c2c1`, the inhibition is reported as -4.4% (inactive).
In the case of `CCCCCCCCCCCCCCCC[n+]1ccccc1`, the inhibition is reported as 53.6%.
In the case of `NC(=NCCCCCCN=C(N)/N=C(\N)Nc1ccc(Cl)cc1)/N=C(\N)Nc1ccc(Cl)cc1`, the inhibition is reported as 0.31% (inactive).
In the case of `CC(C)(C)C(=O)OCOP(=O)(COCCn1cnc2c(N)ncnc21)OCOC(=O)C(C)(C)C`, the inhibition is reported as -9.81% (inactive).
`COCc1c(C(C)C)nc(C(C)C)c(/C=C/[C@@H](O)C[C@@H](O)CC(=O)O)c1-c1ccc(F)cc1` was tested, and the inhibition was -8.56% (inactive).
In the case of `O=C(Nc1ccc([N+](=O)[O-])cc1Cl)c1cc(Cl)ccc1O`, the inhibition is reported as 16.5% (inactive).
For `COC(=O)Nc1nc2ccc(S(=O)c3ccccc3)cc2[nH]1` (stereo not drawn), the inhibition was -7.42% (inactive).
In the case of `CCCCCCCCCCCCCCCCCCNC(=O)OC1CCN(C(=O)OC[C@H](COC(=O)N(Cc2cccc[n+]2CC)C(=O)c2ccccc2OC)OC)CC1`, the inhibition is reported as -2.67% (inactive).
With `CC(C)(C)C1CCC(CC2=C(O)c3ccccc3C(=O)C2=O)CC1` (stereo not drawn) the inhibition was -11.2% (inactive).
For `COC(=O)[C@H]1[C@H]2C[C@@H]3c4[nH]c5cc(OC)ccc5c4CCN3C[C@H]2C[C@@H](OC(=O)/C=C/c2ccc(O)c(OC)c2)[C@@H]1OC`, the inhibition was 9.23% (inactive).
For `CCN(CC)CCNc1ccc(CO)c2sc3ccccc3c(=O)c12`, the inhibition was 33.1% (inactive).
With `COc1cc(-c2ccc(=O)[nH]n2)ccc1OC(F)F` the inhibition was -10.1% (inactive).
In the case of `CCc1nc(N)nc(N)c1-c1ccc(Cl)cc1`, the inhibition is reported as -6.66% (inactive).
In the case of `Cc1ccccc1C(=O)Nc1ccc(C(=O)N2CCCC(N(C)C)c3ccccc32)cc1` (stereo not drawn), the inhibition is reported as 16% (inactive).
`Cc1nc(N)nc(N)c1-c1ccc(Cl)c(Cl)c1` was tested, and the inhibition was -2.13% (inactive).
For `Cc1cc2c(C(C)C)c(O)c(O)c(C=O)c2c(O)c1-c1c(C)cc2c(C(C)C)c(O)c(O)c(C=O)c2c1O`, the inhibition was -0.85% (inactive).
`Oc1c(Cl)cc(Cl)cc1Sc1cc(Cl)cc(Cl)c1O` was tested, and the inhibition was -0.83% (inactive).
In the case of `COc1cc2nc(N3CCN(C(=O)c4ccco4)CC3)nc(N)c2cc1OC`, the inhibition is reported as -17.8% (inactive).
For `COc1cc2c(c(OC)c1OC)-c1ccc(OC)c(=O)cc1[C@@H](NC(C)=O)CC2`, the inhibition was -10.4% (inactive).
In the case of `COc1ccc(-c2nc3ccc(C4=NNC(=O)CC4C)cc3[nH]2)cc1` (stereo not drawn), the inhibition is reported as -0.61% (inactive).
`CC(=O)[C@]1(O)Cc2c(O)c3c(c(O)c2[C@@H](O[C@H]2C[C@H](N)[C@H](O)[C@H](C)O2)C1)C(=O)c1ccccc1C3=O` was tested, and the inhibition was 29.1% (inactive).
For `Cc1cc(O)c2ccccc2c1O`, the inhibition was 19.2% (inactive).
With `S=c1nc[nH]c2nc[nH]c12` the inhibition was 1.43% (inactive).
For `CCCSc1ccc2nc(NC(=O)OC)[nH]c2c1`, the inhibition was -0.03% (inactive).
For `CCC1=C[C@@H]2CN(C1)Cc1c([nH]c3ccccc13)[C@@](C(=O)OC)(c1cc3c(cc1OC)N(C)[C@H]1[C@@](O)(C(=O)OC)[C@H](OC(C)=O)[C@]4(CC)C=CCN5CC[C@]31[C@@H]54)C2`, the inhibition was 1.76% (inactive).
For `O=[N+]([O-])c1ccc(O)c2ncccc12`, the inhibition was 1.93% (inactive).
With `O=C(CCl)c1ccc(Cl)cc1Cl` the inhibition was -17.1% (inactive).
`COc1cccc2c1C(=O)c1c(O)c3c(c(O)c1C2=O)C[C@@](O)(C(C)=O)C[C@@H]3O[C@H]1C[C@H](N)[C@H](O)[C@H](C)O1` was tested, and the inhibition was 7.94% (inactive).
Compound `Cc1nc(Nc2ncc(C(=O)Nc3c(C)cccc3Cl)s2)cc(N2CCN(CCO)CC2)n1` has an inhibition of 98.4%.
`O=c1[nH]c(=O)n([C@H]2C[C@H](O)[C@@H](CO)O2)cc1C(F)(F)F` was tested, and the inhibition was 14.7% (inactive).
`COc1c(C)c2c(c(O)c1C/C=C(\C)CCC(=O)OCCN1CCOCC1)C(=O)OC2` was tested, and the inhibition was 8.22% (inactive).
`Cc1ccc(Nc2nccc(N(C)c3ccc4c(C)n(C)nc4c3)n2)cc1S(N)(=O)=O` was tested, and the inhibition was 81.8%.
With `CN1CC[C@H](c2c(O)cc(O)c3c(=O)cc(-c4ccccc4Cl)oc23)[C@H](O)C1` the inhibition was 67.4%.
`COc1ccc(-c2ccc3cc(C(=O)O)ccc3c2)cc1C12CC3CC(CC(C3)C1)C2` showed an inhibition of 97.7%.
`O=C(O)c1ccc(-n2nc(-c3ccccc3O)nc2-c2ccccc2O)cc1` was tested, and the inhibition was 44.5% (inactive).
With `COC(=O)Nc1nc2ccc(C(=O)C3CC3)cc2[nH]1` the inhibition was 21.4% (inactive).
`CCC(C)n1ncn(-c2ccc(N3CCN(c4ccc(OC[C@H]5CO[C@](Cn6cncn6)(c6ccc(Cl)cc6Cl)O5)cc4)CC3)cc2)c1=O` (stereo partly drawn) was tested, and the inhibition was 10.5% (inactive).
Work on `CCN(CC)CCNC(=O)c1c(C)[nH]c(/C=C2\C(=O)Nc3ccc(F)cc32)c1C` yielded an inhibition of 97.3%.
In the case of `C[n+]1c2cc(N)ccc2cc2ccc(N)cc21` (tested in a mixture with another compound), the inhibition is reported as 8.06% (inactive).
For `CC[C@]1(O)C[C@H]2CN(CCc3c([nH]c4ccccc34)[C@@](C(=O)OC)(c3cc4c(cc3OC)N(C=O)[C@H]3[C@@](O)(C(=O)OC)[C@H](OC(C)=O)[C@]5(CC)C=CCN6CC[C@]43[C@@H]65)C2)C1`, the inhibition was 9% (inactive).
Work on `CNC(=O)c1ccccc1Sc1ccc2c(/C=C/c3ccccn3)n[nH]c2c1` yielded an inhibition of 94.5%.
For `CC[C@@]1(O)C(=O)OCc2c1cc1n(c2=O)Cc2c-1nc1ccccc1c2/C=N/OC(C)(C)C`, the inhibition was 12.1% (inactive).
With `O=c1c(-c2ccccc2)c1-c1ccccc1` the inhibition was -9.18% (inactive).
With `CC(C)C[C@H](NC(=O)[C@H](CCc1ccccc1)NC(=O)CN1CCOCC1)C(=O)N[C@@H](Cc1ccccc1)C(=O)N[C@@H](CC(C)C)C(=O)[C@@]1(C)CO1` the inhibition was 5.34% (inactive).
`CCCCCCNC(=O)n1cc(F)c(=O)[nH]c1=O` was tested, and the inhibition was -3.52% (inactive).
For `O=c1[nH]c(=O)n([C@H]2C[C@H](O)[C@@H](CO)O2)cc1F`, the inhibition was -18.6% (inactive).
With `CCCN(CCC)C(=O)C(CCC(=O)OCCCN1CCN(CCOC(=O)Cc2c(C)n(C(=O)c3ccc(Cl)cc3)c3ccc(OC)cc23)CC1)NC(=O)c1ccccc1` (stereo not drawn) the inhibition was 12.5% (inactive).
`C=C(C)[C@H]1Cc2c(ccc3c2O[C@@H]2COc4cc(OC)c(OC)cc4[C@@H]2C3=O)O1` was tested, and the inhibition was 4.93% (inactive).
In the case of `CN(C)c1ccc2nc3ccc(=[N+](C)C)cc-3sc2c1`, the inhibition is reported as 13.3% (inactive).
With `Cn1cnc([N+](=O)[O-])c1Sc1ncnc2nc[nH]c12` the inhibition was -15.7% (inactive).
`Cc1cc(C)c(/C=C2\C(=O)Nc3ccccc32)[nH]1` was tested, and the inhibition was 68.5%.
`Oc1c(Cl)cc(Cl)c2cccnc12` was tested, and the inhibition was -13.9% (inactive).
In the case of `O=C(NOCC1CC1)c1ccc(F)c(F)c1Nc1ccc(I)cc1Cl`, the inhibition is reported as 13.2% (inactive).
`COC(=O)Nc1nc2ccc(C(=O)c3cccs3)cc2[nH]1` was tested, and the inhibition was 12.9% (inactive).
With `O=C1c2c(O)ccc(O)c2C(=O)c2c(NCCNCCO)ccc(NCCNCCO)c21` the inhibition was 43.4% (inactive).
For `Cc1nc2ccc(CN(C)c3ccc(C(=O)N[C@@H](CCC(=O)O)C(=O)O)s3)cc2c(=O)[nH]1`, the inhibition was 14.6% (inactive).
For `Cc1ccc2nc(N)[nH]c(=O)c2c1Sc1ccncc1`, the inhibition was 16.7% (inactive).
In the case of `Cc1cc(C2CCCCC2)n(O)c(=O)c1`, the inhibition is reported as -9.21% (inactive).
With `CCCCCCCCCCCCCC[N+](C)(C)C` the inhibition was -1.09% (inactive).
In the case of `Cc1ccc([N+](=O)[O-])[c]2c1[O][Hg]2`, the inhibition is reported as 36.9% (inactive).
`COC(=O)Nc1nc2ccc(C(=O)c3ccccc3)cc2[nH]1` was tested, and the inhibition was 25.8% (inactive).
For `Cc1cc(=O)c2c(O)c3c(O)cc(=O)c4c3c3c(cc(O)c1c23)C(C)(C)C=4O`, the inhibition was 32.9% (inactive).
In the case of `COc1ccc2cc1Oc1ccc(cc1)C[C@H]1c3c(cc4c(c3Oc3cc5c(cc3OC)CCN(C)[C@@H]5C2)OCO4)CCN1C`, the inhibition is reported as 17.9% (inactive).
